Experimental data from patent publication US20230017045A1, “PYRIDINE AND PYRIMIDINE CARBOXYLATE HERBICIDES AND METHODS OF USE THEREOF” (Dow AgroSciences LLC, priority 2017, published 2023).

tested on: test plant species; assay: Post-emergent herbicidal activity test (greenhouse, foliar spray, visual growth reduction); format: in vivo; conditions: post-emergence, 336 h, ECHCG: barnyardgrass (Echinochloa crus-galli), 140 g ai/ha, 14 days after application, read-out: Visual Growth Reduction (%) 14 Days After Application, ECHCG
Method: Post-emergent Test: Seeds or nutlets of the desired test plant species were planted in Sun Gro Metro-Mix® 360 planting mixture, which typically has a pH of 6.0 to 6.8 and an organic matter content of about 30 percent, in plastic pots with a surface area of 64 square centimeters. In some aspects, to ensure good germination and healthy plants, a fungicide treatment and/or other chemical or physical treatment was applied. The plants were grown for 7-21 d in a greenhouse with an approximate 15 h photoperiod which was maintained at 23-29° C. during the day and 22-28° C. during the night. Nutrients and water were added on a regular basis and supplemental lighting was provided with overhead metal halide 1000-Watt lamps as necessary. Plants were used for testing when they reached the first or second true leaf stage. A weighed amount, determined by the highest rate to be tested, of each test compound was placed in a 25 mL glass vial and was dissolved in 4 mL of a 97:3 v/v mixture of acetone and DMSO to obtain concentrated stock solutions. […] The concentrated stock solutions obtained were diluted with 20 mL of an aqueous mixture containing acetone, water, isopropyl alcohol, DMSO, […] crop oil concentrate, and X-77 surfactant in a 48.5:39:10:1.5:1.0:0.02 v/v ratio to obtain spray solutions containing the application rate. Compound requirements are based upon a 12 mL application volume at a rate of 187 liters per hectare (L/ha). Formulated compounds were applied to the plant material with an overhead Mandel track sprayer equipped with […] nozzles calibrated to deliver 187 L/ha over an application area of 0.64 square meters at a spray height of 18 inches (43 cm) above the average plant canopy height. Control plants were sprayed in the same manner with the solvent blank. The treated plants and control plants were placed in a greenhouse as described above and watered by subirrigation to prevent wash-off of the test compounds. After 14 d, the condition of the test plants as compared with that of the nontreated and control plants was determined visually and scored on a scale of 0 to 100 percent where 0 corresponds to no injury and 100 corresponds to complete control. In the reporting of the results, Table A: Percent Growth Reduction Conversion Table was used.

| Compound | pest or weed control at 140 g/ha |
| --- | --- |
| COC(=O)c1nc(-c2cc3c(cc2F)OC(F)(F)O3)c(OC)cc1Cl [F335, Methyl 3-chloro-5-methoxy-6-(2,2,6-trifluorobenzo[d][1,3]dioxol-5-yl)picolinate] | 0 to 29% |
| O=C(O)c1nc(-c2ccc(C(F)(F)F)c(F)c2)ccc1Cl [F315, 3-Chloro-6-(3-fluoro-4-(trifluoromethyl)phenyl) picolinic acid] | 0 to 29% |

same assay, conditions: post-emergence, 336 h, IPOHE: ivy-leaf morning glory (Ipomoea hederacea), 140 g ai/ha, 14 days after application, read-out: Visual Growth Reduction (%) 14 Days After Application, IPOHE

| Compound | pest or weed control at 140 g/ha |
| --- | --- |
| COC(=O)c1nc(-c2cc3c(cc2F)OC(F)(F)O3)c(OC)cc1Cl [F335, Methyl 3-chloro-5-methoxy-6-(2,2,6-trifluorobenzo[d][1,3]dioxol-5-yl)picolinate] | 0 to 29% |
| O=C(O)c1nc(-c2ccc(C(F)(F)F)c(F)c2)ccc1Cl [F315, 3-Chloro-6-(3-fluoro-4-(trifluoromethyl)phenyl) picolinic acid] | 95 to 100% |

same assay, conditions: post-emergence, 336 h, KCHSC: kochia (Bassia scoparia), 140 g ai/ha, 14 days after application, read-out: Visual Growth Reduction (%) 14 Days After Application, KCHSC

| Compound | pest or weed control at 140 g/ha |
| --- | --- |
| COC(=O)c1nc(-c2cc3c(cc2F)OC(F)(F)O3)c(OC)cc1Cl [F335, Methyl 3-chloro-5-methoxy-6-(2,2,6-trifluorobenzo[d][1,3]dioxol-5-yl)picolinate] | 0 to 29% |
| O=C(O)c1nc(-c2ccc(C(F)(F)F)c(F)c2)ccc1Cl [F315, 3-Chloro-6-(3-fluoro-4-(trifluoromethyl)phenyl) picolinic acid] | 0 to 29% |

same assay, conditions: post-emergence, 336 h, ORYSA: rice (Oryza sativa), 140 g ai/ha, 14 days after application, read-out: Visual Growth Reduction (%) 14 Days After Application, ORYSA

| Compound | pest or weed control at 140 g/ha |
| --- | --- |
| COC(=O)c1nc(-c2cc3c(cc2F)OC(F)(F)O3)c(OC)cc1Cl [F335, Methyl 3-chloro-5-methoxy-6-(2,2,6-trifluorobenzo[d][1,3]dioxol-5-yl)picolinate] | 0 to 29% |
| O=C(O)c1nc(-c2ccc(C(F)(F)F)c(F)c2)ccc1Cl [F315, 3-Chloro-6-(3-fluoro-4-(trifluoromethyl)phenyl) picolinic acid] | 0 to 29% |

same assay, conditions: post-emergence, 336 h, SETFA: giant foxtail (Setaria faberi), 140 g ai/ha, 14 days after application, read-out: Visual Growth Reduction (%) 14 Days After Application, SETFA

| Compound | pest or weed control at 140 g/ha |
| --- | --- |
| COC(=O)c1nc(-c2cc3c(cc2F)OC(F)(F)O3)c(OC)cc1Cl [F335, Methyl 3-chloro-5-methoxy-6-(2,2,6-trifluorobenzo[d][1,3]dioxol-5-yl)picolinate] | 0 to 29% |
| O=C(O)c1nc(-c2ccc(C(F)(F)F)c(F)c2)ccc1Cl [F315, 3-Chloro-6-(3-fluoro-4-(trifluoromethyl)phenyl) picolinic acid] | 60 to 74% |

same assay, conditions: post-emergence, 336 h, SORVU: grain sorghum (Sorghum vulgare), 140 g ai/ha, 14 days after application, read-out: Visual Growth Reduction (%) 14 Days After Application, SORVU

| Compound | pest or weed control at 140 g/ha |
| --- | --- |
| COC(=O)c1nc(-c2cc3c(cc2F)OC(F)(F)O3)c(OC)cc1Cl [F335, Methyl 3-chloro-5-methoxy-6-(2,2,6-trifluorobenzo[d][1,3]dioxol-5-yl)picolinate] | 0 to 29% |
| O=C(O)c1nc(-c2ccc(C(F)(F)F)c(F)c2)ccc1Cl [F315, 3-Chloro-6-(3-fluoro-4-(trifluoromethyl)phenyl) picolinic acid] | 85 to 94% |

same assay, conditions: post-emergence, 336 h, STEME: common chickweed (Stellaria media), 140 g ai/ha, 14 days after application, read-out: Visual Growth Reduction (%) 14 Days After Application, STEME

| Compound | pest or weed control at 140 g/ha |
| --- | --- |
| COC(=O)c1nc(-c2cc3c(cc2F)OC(F)(F)O3)c(OC)cc1Cl [F335, Methyl 3-chloro-5-methoxy-6-(2,2,6-trifluorobenzo[d][1,3]dioxol-5-yl)picolinate] | 0 to 29% |
| O=C(O)c1nc(-c2ccc(C(F)(F)F)c(F)c2)ccc1Cl [F315, 3-Chloro-6-(3-fluoro-4-(trifluoromethyl)phenyl) picolinic acid] | 0 to 29% |

same assay, conditions: post-emergence, 336 h, TRZAS: wheat, spring (Triticum aestivum), 140 g ai/ha, 14 days after application, read-out: Visual Growth Reduction (%) 14 Days After Application, TRZAS

| Compound | pest or weed control at 140 g/ha |
| --- | --- |
| COC(=O)c1nc(-c2cc3c(cc2F)OC(F)(F)O3)c(OC)cc1Cl [F335, Methyl 3-chloro-5-methoxy-6-(2,2,6-trifluorobenzo[d][1,3]dioxol-5-yl)picolinate] | 0 to 29% |
| O=C(O)c1nc(-c2ccc(C(F)(F)F)c(F)c2)ccc1Cl [F315, 3-Chloro-6-(3-fluoro-4-(trifluoromethyl)phenyl) picolinic acid] | 60 to 74% |

same assay, conditions: post-emergence, 336 h, blackgrass (Alopecurus myosuroides), 14 Days After Application, 140 g ai/ha, read-out: Visual Growth Reduction (%) ALOMY

| Compound | pest or weed control at 140 g/ha |
| --- | --- |
| COC(=O)c1nc(-c2cc3c(cc2F)OC(F)(F)O3)c(OC)cc1Cl [F335, Methyl 3-chloro-5-methoxy-6-(2,2,6-trifluorobenzo[d][1,3]dioxol-5-yl)picolinate] | 0 to 29% |
| O=C(O)c1nc(-c2ccc(C(F)(F)F)c(F)c2)ccc1Cl [F315, 3-Chloro-6-(3-fluoro-4-(trifluoromethyl)phenyl) picolinic acid] | 0 to 29% |

same assay, conditions: post-emergence, 336 h, canada thistle (Cirsium arvense), 14 Days After Application, 140 g ai/ha, read-out: Visual Growth Reduction (%) CIRAR

| Compound | pest or weed control at 140 g/ha |
| --- | --- |
| O=C(O)c1nc(-c2ccc(C(F)(F)F)c(F)c2)ccc1Cl [F315, 3-Chloro-6-(3-fluoro-4-(trifluoromethyl)phenyl) picolinic acid] | 60 to 74% |

same assay, conditions: post-emergence, 336 h, crabgrass (Digitaria sanguinalis), 14 Days After Application, 140 g ai/ha, read-out: Visual Growth Reduction (%) DIGSA

| Compound | pest or weed control at 140 g/ha |
| --- | --- |
| COC(=O)c1nc(-c2cc3c(cc2F)OC(F)(F)O3)c(OC)cc1Cl [F335, Methyl 3-chloro-5-methoxy-6-(2,2,6-trifluorobenzo[d][1,3]dioxol-5-yl)picolinate] | 0 to 29% |
| O=C(O)c1nc(-c2ccc(C(F)(F)F)c(F)c2)ccc1Cl [F315, 3-Chloro-6-(3-fluoro-4-(trifluoromethyl)phenyl) picolinic acid] | 75 to 84% |

same assay, conditions: post-emergence, 336 h, lambsquarters (Chenopodium album), 14 Days After Application, 140 g ai/ha, read-out: Visual Growth Reduction (%) CHEAL

| Compound | pest or weed control at 140 g/ha |
| --- | --- |
| COC(=O)c1nc(-c2cc3c(cc2F)OC(F)(F)O3)c(OC)cc1Cl [F335, Methyl 3-chloro-5-methoxy-6-(2,2,6-trifluorobenzo[d][1,3]dioxol-5-yl)picolinate] | 30 to 44% |
| O=C(O)c1nc(-c2ccc(C(F)(F)F)c(F)c2)ccc1Cl [F315, 3-Chloro-6-(3-fluoro-4-(trifluoromethyl)phenyl) picolinic acid] | 60 to 74% |

same assay, conditions: post-emergence, 336 h, redroot pigweed (Amaranthus retroflexus), 14 Days After Application, 140 g ai/ha, read-out: Visual Growth Reduction (%) AMARE

| Compound | pest or weed control at 140 g/ha |
| --- | --- |
| COC(=O)c1nc(-c2cc3c(cc2F)OC(F)(F)O3)c(OC)cc1Cl [F335, Methyl 3-chloro-5-methoxy-6-(2,2,6-trifluorobenzo[d][1,3]dioxol-5-yl)picolinate] | 0 to 29% |
| O=C(O)c1nc(-c2ccc(C(F)(F)F)c(F)c2)ccc1Cl [F315, 3-Chloro-6-(3-fluoro-4-(trifluoromethyl)phenyl) picolinic acid] | 60 to 74% |

same assay, conditions: post-emergence, 336 h, wild oat (Avena fatua), 14 Days After Application, 140 g ai/ha, read-out: Visual Growth Reduction (%) AVEFA

| Compound | pest or weed control at 140 g/ha |
| --- | --- |
| COC(=O)c1nc(-c2cc3c(cc2F)OC(F)(F)O3)c(OC)cc1Cl [F335, Methyl 3-chloro-5-methoxy-6-(2,2,6-trifluorobenzo[d][1,3]dioxol-5-yl)picolinate] | 0 to 29% |
| O=C(O)c1nc(-c2ccc(C(F)(F)F)c(F)c2)ccc1Cl [F315, 3-Chloro-6-(3-fluoro-4-(trifluoromethyl)phenyl) picolinic acid] | 0 to 29% |

same assay, conditions: post-emergence, 336 h, yellow nutsedge (Cyperus esculentus), 14 Days After Application, 140 g ai/ha, read-out: Visual Growth Reduction (%) CYPES

| Compound | pest or weed control at 140 g/ha |
| --- | --- |
| COC(=O)c1nc(-c2cc3c(cc2F)OC(F)(F)O3)c(OC)cc1Cl [F335, Methyl 3-chloro-5-methoxy-6-(2,2,6-trifluorobenzo[d][1,3]dioxol-5-yl)picolinate] | 0 to 29% |
| O=C(O)c1nc(-c2ccc(C(F)(F)F)c(F)c2)ccc1Cl [F315, 3-Chloro-6-(3-fluoro-4-(trifluoromethyl)phenyl) picolinic acid] | 60 to 74% |
